Measured values: publication PMC4718910 (SpringerPlus, 2016)
Where two headings read alike, the source gives them in different places. Blank lines part the entries; values can stand above or below the molecule they belong to.

Tests used:
ER/PgR/HER2-positive MBC = test system: ER/PgR/HER2-positive MBC; design: method as in Kaufman et al. [2009]; settings: N 207, ref Kaufman et al. [2009]; cited from earlier work
[1] = Afatinib plasma pharmacokinetics (HPLC-MS/MS); assay type: in vivo, human; settings: for AUC / Tmax: human, plasma, po; for AUC: read-out: AUCtau,ss, geometric mean; for Tmax: read-out: tmax,ss, median
[2] = Letrozole plasma pharmacokinetics (HPLC-MS/MS); assay type: in vivo, human
Protocol: For quantification of drug plasma concentrations, 5 mL of venous blood was collected. […] Letrozole plasma concentrations were determined by a validated HPLC–MS/MS assay at Nuvisan Pharma Services GmbH & Co. KG, Neu-Ulm, Germany.

ErbB3 = test system: ErbB3; design: method as in Li et al. [2008]; settings: ref Li et al. [2008]; cited from earlier work
[3] = test system: HER2-positive metastatic breast cancer (MBC); design: method as in Lin et al. [2012]; settings: afatinib monotherapy 50 mg/day, heavily pre-treated HER2-positive MBC after trastuzumab; ref Lin et al. [2012]; cited from earlier work
HER2 = settings: read-out: half maximal inhibitory concentration, HER2; ref Li et al. [2008]; cited from earlier work
ErbB4 = settings: read-out: half maximal inhibitory concentration, ErbB4; ref Li et al. [2008]; cited from earlier work
ER/PgR-positive MBC = test system: ER/PgR-positive MBC; design: method as in Huober et al. [2012]; settings: ref Huober et al. [2012], cited from earlier work
[4] = test system: ER/PgR-positive HER2-negative MBC; design: method as in Bachelot et al. [2012]; settings: aromatase inhibitor-resistant, N 111; ref Bachelot et al. [2012]; cited from earlier work
[5] = Afatinib 30 mg multiple oral administrations with letrozole 2.5 mg, N 5
[6] = Afatinib 40 mg multiple oral administrations with letrozole 2.5 mg, N 4
[7] = ER/PgR-positive HER2-negative MBC, N 35

Compound: CC(C)(C#N)c1cc(Cn2cncn2)cc(C(C)(C)C#N)c1 [Anastrozole]
Median PFS (independent assessment) (ER/PgR/HER2-positive MBC): 2.4 (independent assessment) months

Cpre,ss, 57, geometric mean ([1]; Afatinib 30 mg with letrozole 2.5 mg, pre-dose day 1 of cycle 3, N 8): 15.8 ng/mL | Cpre,ss, 85, geometric mean ([1]; Afatinib 30 mg with letrozole 2.5 mg, pre-dose day 1 of cycle 4, N 5): 17.3 ng/mL | Cpre,ss, 57, geometric mean ([1]; Afatinib 40 mg with letrozole 2.5 mg, pre-dose day 1 of cycle 3, N 5): 21.4 ng/mL | Cpre,ss, 85, geometric mean ([1]; Afatinib 40 mg with letrozole 2.5 mg, pre-dose day 1 of cycle 4, N 4): 16.9 ng/mL | AUC [1, 5]: 579 ng·h/mL | Tmax [1, 5]: 4 h | AUC [1, 6]: 660 ng·h/mL | Tmax [1, 6]: 2 h | effect of afatinib on letrozole exposure ([2]; letrozole trough and 2-h post-dose plasma concentrations, screening period vs afatinib treatment period): no effect
Compound: CN(C)C/C=C/C(=O)Nc1cc2c(Nc3ccc(F)c(Cl)c3)ncnc2cc1O[C@H]1CCOC1 [Afatinib]
ErbB3 transphosphorylation (ErbB3): inhibits ErbB3 transphosphorylation | Median PFS [3]: 15 weeks | overall survival (OS) [3]: 61 weeks | IC50 (HER2): 14 nM | IC50 (ErbB4): […]

Compound: N#Cc1ccc(C(c2ccc(C#N)cc2)n2cncn2)cc1 [Letrozole]
AUC ([2]; human, plasma, oral, 2.5 mg, read-out: geometric mean AUCtau,ss): 2420 ng·h/mL | Cmax ([2]; human, plasma, oral, 2.5 mg, read-out: geometric mean Cmax,ss): 135 ng/mL | Grade ≥3 bone pain (ER/PgR-positive MBC; [7]): Bone pain 6% | Median PFS (ER/PgR-positive MBC; [7]): 15.2 months | Median PFS (ER/PgR-positive MBC; ER/PgR/HER2-positive MBC, first-line): 3.3 months | Grade ≥3 bone pain (ER/PgR-positive MBC; ER/PgR/HER2-positive MBC): 7% | Grade ≥3 dyspnea (ER/PgR-positive MBC; ER/PgR/HER2-positive MBC): 7%

Compound: CC/C(=C(\c1ccccc1)c1ccc(OCCN(C)C)cc1)c1ccccc1 [Tamoxifen]
Clinical benefit rate [4]: Clinical benefit rate = 42%
